Assay results: patent publication US20110281944A1, “METHOD OF A RHEIN COMPOUND FOR INHIBITING PANCREATIC ISLET BETA-CELL DYSFUNCTION AND PREVENTING OR TREATING A PANCREATIC ISLET BETA-CELL DYSFUNCTION RELATED DISORDER” (Research Institute of Nephrology of Nanjing PLA, China, priority 2010, published 2011)
Several values for one entry are separate records, joined by “and”; a condition that tells them apart may be missing. Equal values may be shown once. Entries after “also recorded” stand apart in the source; their conditions may differ.

Legend:
[1] = system: pancreatic islets of type 2 diabetic db/db mice; assay: Pancreatic islet isolation and perfusion, first phase insulin secretion; type: ex vivo
Protocol: (§1) The agents and animals used in this example are the same as those used in example 1.
Experimental methods: After 8 weeks of administration, 5 mice are randomly selected from each group for pancreatic islet isolation and perfusion as follows. After anesthesia, the opening of common bile duct at duodenal papilla for each animal is clamped in vivo. 2 ml IV type collagenase is injected at the concentration of 1 mg/ml after performing common bile duct puncture under a stereoscopic microscope. After entering the pancreatic duct reversely to expand the pancreas, the pancreas is rapidly removed. The pancreas is placed in Hank's buffer containing 1 mg/ml collagenase and digested for 40 min to remove the collagens, and then washed under vibration for several times. Pancreatic islets are successfully isolated under microscopy. The pancreatic islets are incubated in a CO2 incubator for 2 hour with 50 islets per group, and then the islets are placed into a specially manufactured constant-temperature perfusion equipment. The […] are perfused with 2.8 mM glucose using a Harvard micro-pump at 0.5 ml/min for glucose starvation perfusion, and after 30 min, perfusion of high glucose (16.7 Mm) is performed at 1 ml/min. […] The first phase insulin secretion and dynamic secretion level of insulin are reflected from the curve of insulin levels measured.

[2] = system: type 2 diabetic db/db mice; assay: Intraperitoneal glucose tolerance test (IPGTT) on db/db mice after treatment with rhein for 8 weeks; type: in vivo; conditions: rhein 120 mg/Kg gavage 8 weeks
Protocol: Administration to the experimental animals: Thirty diabetic db/db mice of 4 week old are randomly assigned to treatment group and control group. Additional fifteen normal db/m mice of 4 week old are used as normal control group. The treatment group of diabetic db/db mice is treated with rhein (120 mg/Kg, dissolved in 0.1% cellulose sodium) by gavage for continuous 8 weeks. The diabetic control group of db/db mice and the normal control group of db/m mice are administrated 0.1% cellulose sodium by gavage.
Experimental methods: The intraperitoneal glucose tolerance test (IPGTT) is carried out on the mice after administration for 8 weeks. The mice are fasted overnight, and then are administrated by i.p. injection of glucose at 0.5 g/kg body weight. Blood is collected at 0, 30, 60 and 120 min for detecting whole blood glucose level and insulin level and calculating the area under the curve (AUC) of insulin. The area under the curve of insulin during 0˜30 min (AUCINS0.30) is calculated as: (insulin level at 30 min[…]insulin level at 0 min)×15, for evaluating the ability of early phase insulin secretion.

[3] = system: pancreatic islet β-cells of db/db mice; assay: Immunohistochemical insulin staining and metrology analysis of pancreatic islets (β-cell amount); type: in vivo; conditions: administration for 8 weeks
Protocol: as §1
Experimental methods: Immunohistochemical assay. The mice are anaesthetized with phenobarbital sodium, perfused with physiological saline via heart, and fixed with 4% polyoxymethylene. The pancreas are removed, and then placed in 4% polyoxymethylene for 4-6 hours, embedded in paraffin, and sliced into a thickness of 5 um. The slices are dewaxed with xylene, rehydrated with ethanol at different gradient concentrations, and then treated with 0.3% hydrogen peroxide at room temperature for 20 min, so as to block the activity of endogenous peroxidase. The samples are treated with steams at 121° C. under high pressure for 10 min for repairing the antigen. 10% goat serum is added for blocking non-specific antigens. Rabbit-anti-mouse insulin antibody is added, and reacted at 4° C. overnight for 14 hours. […]
Metrology analysis of pancreatic islets: All of the slices are observed with optical microscope E800 (Nikon, Japan), and photographed with a digital camera (Sony, Japan) connected with the microscope. The digital photographs are obtained via Axiovision 4.3 software, and analyzed with Image-Pro Plus 5.0.1. Fifteen pancreatic islet photographs are randomly selected for each mouse, and at least 50 pancreatic islet photographs are analyzed for each group. […]

[4] = system: insulin-resistant obese rats; assay: Hyperglycemic clamp in obese rats after treatment with rhein for 4 weeks; type: in vivo, Wistar rats
From the text: (§2) Experimental animals: Insulin-resistant obese rats are 4-week in-bred female Wistar rats induced by feeding with high-sugar high-fat feedstuff (20% sugar, 10% lard, 2.5% cholesterol, 1% cholic acid and 66.5% normal feedstuff) for 3 weeks.
(§3) Administration to the experimental animals: Thirty insulin-resistant obese rats are randomly assigned to treatment group and control group. Additional fifteen normal Wistar rats of 7 week old are used as normal control group. The treatment group of insulin-resistant obese rats is treated with rhein (100 mg/Kg, dissolved in 0.1% cellulose sodium) by gavage for continuous 4 weeks. The insulin-resistant obese control group and the normal control group are administrated with 0.1% cellulose sodium by gavage.

[5] = system: pancreatic islet β-cells of obese rats; assay: Insulin expression in pancreatic islets of obese rats; type: in vivo, Wistar rats; conditions: rhein for 4 weeks, vs obese control group
From the text: as §2, §3

[6] = Oral absorption kinetics and pharmacokinetics of rhein in rats; type: in vivo, Wistar rats
Protocol: Grouping of the animals and experimental procedure: Eighteen Wistar rats (male: female=1:1; body weight=180˜210 g) are randomly divided into 3 groups, 6 animal each group (male 3, female 3). The animals are fastened but supplied with free water for 10 h, and then are administrated ig with 35 mg/kg, 70 mg/kg or 140 mg/kg rhein. Blood samples are collected from carotid artery cannula at 0.033 h, 0.083 h, 0.25 h, 0.5 h, 0.75 h, 1 h, 2 h, 3 h, 4 h, 6 h, 8 h, 12 h and 14 h after administration, and centrifuged. 50 μl plasma is used for HPLC-fluorescence (FLD) analysis. The obtained plasma rhein concentration-time data are used for calculating pharmacokinetic parameters via corresponding pharmacokinetic programmes.

[7] = rhein 100 mg/Kg by gavage for 4 weeks

Plasma rhein concentration ([6]; gavage 35 mg/kg, 0.033 h, mean (X) of 6 rats): 14.79 µg/mL | Plasma rhein concentration ([6]; gavage 35 mg/kg, 0.083 h, mean (X) of 6 rats): 27.67 µg/mL | Plasma rhein concentration ([6]; gavage 35 mg/kg, 0.25 h, mean (X) of 6 rats): 34.95 µg/mL | Plasma rhein concentration ([6]; gavage 35 mg/kg, 0.50 h, mean (X) of 6 rats): 29.80 µg/mL | Plasma rhein concentration ([6]; gavage 35 mg/kg, 0.75 h, mean (X) of 6 rats): 28.21 µg/mL | Plasma rhein concentration ([6]; gavage 35 mg/kg, 1.0 h, mean (X) of 6 rats): 23.50 µg/mL | Plasma rhein concentration ([6]; gavage 35 mg/kg, 2.0 h, mean (X) of 6 rats): 8.45 µg/mL | Plasma rhein concentration ([6]; gavage 35 mg/kg, 3.0 h, mean (X) of 6 rats): 4.01 µg/mL | Plasma rhein concentration ([6]; gavage 35 mg/kg, 4.0 h, mean (X) of 6 rats): 3.30 µg/mL | Plasma rhein concentration ([6]; gavage 35 mg/kg, 6.0 h, mean (X) of 6 rats): 2.19 µg/mL | Plasma rhein concentration ([6]; gavage 35 mg/kg, 8.0 h, mean (X) of 6 rats): 1.86 µg/mL | Plasma rhein concentration ([6]; gavage 35 mg/kg, 12.0 h, mean (X) of 6 rats): 0.60 µg/mL | Plasma rhein concentration ([6]; gavage 35 mg/kg, 14.0 h, mean (X) of 6 rats): 0.35 µg/mL | Plasma rhein concentration ([6]; gavage 70 mg/kg, 1.0 h, mean (x) of 6 rats): 36.00 µg/mL | Plasma rhein concentration ([6]; gavage 70 mg/kg, 2.0 h, individual rats 1-6, 70 mg/kg): 13.29 µg/mL and 34.33 µg/mL | AUC ([6]; ig 35 mg/kg): 69.52 ± 9.13 µg·h/mL | actually-measured peak time ([6]; ig 35 mg/kg): 0.42 ± 0.26 h | calculated half life ([6]; ig 35 mg/kg): 3.22 ± 1.21 h | peak concentration ([6]; ig 35 mg/kg): 37.96 ± 12.87 µg/mL | AUC ([6]; ig 70 mg/kg): 164.29 ± 44.77 µg·h/mL | actually-measured peak time ([6]; ig 70 mg/kg): 0.50 ± 0.27 h | calculated half life ([6]; ig 70 mg/kg): 3.68 ± 1.42 h | peak concentration ([6]; ig 70 mg/kg): 54.64 ± 11.60 µg/mL | AUC ([6]; ig 140 mg/kg): 237.75 ± 42.81 µg·h/mL | actually-measured peak time ([6]; ig 140 mg/kg): 0.38 ± 0.14 h | calculated half life ([6]; ig 140 mg/kg): 4.30 ± 1.55 h | peak concentration ([6]; ig 140 mg/kg): 67.17 ± 14.62 µg/mL | pharmacokinetics in the tested dosage range (dose linearity) ([6]; ig 35-140 mg/kg): approximately linear
SMILES: O=C(O)c1cc(O)c2c(c1)C(=O)c1cccc(O)c1C2=O [rhein]
insulin level after high glucose stimulation relative to basal level ([1]; islets of rhein-treated db/db mice, high glucose 16.7 mmol/L for 1 min): 7 times as high as basal level | first phase insulin secretion ([1]; type 2 diabetic db/db mice, pancreatic islet perfusion): significantly improves the first phase insulin secretion; also recorded: increases the first phase insulin secretion | AUC-glucose [2]: 1834 ± 151 | AUC-insulin [2]: 812 ± 80 | AUCINSO-30 (AUC of insulin within 0-30 min) [2]: 63 ± 32 | Blood glucose ([2]; 0 min): 7.6 ± 0.7 mmol/L | plasma insulin ([2]; 0 min): 5.3 ± 0.7 µg/L | Blood glucose ([2]; 30 min): 19.5 ± 1.5 mmol/L | plasma insulin ([2]; 30 min): 9.5 ± 1.9 µg/L | Blood glucose ([2]; 60 min): 18.3 ± 2.0 mmol/L | plasma insulin ([2]; 60 min): 6.0 ± 0.7 µg/L | Blood glucose ([2]; 120 min): 10.4 ± 1.1 mmol/L | plasma insulin ([2]; 120 min): 5.9 ± 0.6 µg/L | insulin expression level in the pancreatic islets (insulin staining) ([3]; vs db/db control group): significantly enhances insulin expression level in the pancreatic islets | amount (mass) of pancreatic islet β-cells ([3]; vs untreated db/db): increases the mass of pancreatic islet β-cells; also recorded: significantly reduces the loss of pancreatic islet β-cells | FBG (fasting blood glucose) [4, 7]: 5.3 ± 0.5 mmol/L | SSBG (steady state blood glucose) [4, 7]: 14.9 ± 0.8 mmol/L | GIR (glucose infusion rate) ([4]; rhein 100 mg/Kg by gavage for 4 weeks, Table 1): 32.2 ± 2.9 mg/kg/min | glucose infusion rate (GIR) at steady-state ([4]; treatment with rhein for 4 weeks): 26.1 ± 2.9 mg/kg/min | insulin expression level in the islets [5]: significantly improves the insulin expression level in the islets | Plasma rhein concentration ([6]; gavage 35 mg/kg, 0.033 h, individual rats 1-6, 35 mg/kg): 15.34 µg/mL and 19.11 µg/mL and 10.10 µg/mL and 10.54 µg/mL and 24.21 µg/mL and 9.45 µg/mL | Plasma rhein concentration ([6]; gavage 35 mg/kg, 0.083 h, individual rats 1-6, 35 mg/kg): 22.07 µg/mL and 44.52 µg/mL and 22.33 µg/mL and 16.18 µg/mL and 40.94 µg/mL and 19.99 µg/mL | Plasma rhein concentration ([6]; gavage 35 mg/kg, 0.25 h, individual rats 1-6, 35 mg/kg): 27.43 µg/mL and 45.05 µg/mL and 26.00 µg/mL and 26.86 µg/mL and 59.77 µg/mL and 24.59 µg/mL | Plasma rhein concentration ([6]; gavage 35 mg/kg, 0.50 h, individual rats 1-6, 35 mg/kg): 22.01 µg/mL and 22.71 µg/mL and 28.87 µg/mL and 26.88 µg/mL and 55.32 µg/mL and 22.99 µg/mL | Plasma rhein concentration ([6]; gavage 35 mg/kg, 0.75 h, individual rats 1-6, 35 mg/kg): 18.92 µg/mL and 18.72 µg/mL and 35.43 µg/mL and 35.51 µg/mL and 45.07 µg/mL and 15.62 µg/mL | Plasma rhein concentration ([6]; gavage 35 mg/kg, 1.0 h, individual rats 1-6, 35 mg/kg): 19.13 µg/mL and 19.96 µg/mL and 21.75 µg/mL and 27.32 µg/mL and 37.07 µg/mL and 15.78 µg/mL | Plasma rhein concentration ([6]; gavage 35 mg/kg, 2.0 h, individual rats 1-6, 35 mg/kg): 8.25 µg/mL and 4.26 µg/mL and 7.88 µg/mL and 7.44 µg/mL and 7.45 µg/mL and 15.41 µg/mL | Plasma rhein concentration ([6]; gavage 35 mg/kg, 3.0 h, individual rats 1-6, 35 mg/kg): 4.03 µg/mL and 4.23 µg/mL and 4.39 µg/mL and 4.04 µg/mL and 2.99 µg/mL and 4.38 µg/mL | Plasma rhein concentration ([6]; gavage 35 mg/kg, 4.0 h, individual rats 1-6, 35 mg/kg): 3.98 µg/mL and 4.16 µg/mL and 1.70 µg/mL and 3.75 µg/mL and 1.31 µg/mL and 4.91 µg/mL | Plasma rhein concentration ([6]; gavage 35 mg/kg, 6.0 h, individual rats 1-6, 35 mg/kg): 3.08 μg/ml (2×) and 2.69 μg/ml and 2.89 μg/ml and 0.57 μg/ml and 0.86 μg/ml | Plasma rhein concentration ([6]; gavage 35 mg/kg, 8.0 h, individual rats 1-6, 35 mg/kg): 4.99 µg/mL and 0.75 µg/mL and 1.94 µg/mL and 2.05 µg/mL and 1.07 µg/mL and 0.34 µg/mL | Plasma rhein concentration ([6]; gavage 35 mg/kg, 12.0 h, individual rats 1-6, 35 mg/kg): 0.58 μg/ml and 0.18 μg/ml and 1.13 μg/ml and 1.35 μg/ml and ND (Lower than the minimal detectable concentration 0.13 μg/ml) and 0.36 μg/ml | Plasma rhein concentration ([6]; gavage 35 mg/kg, 14.0 h, individual rats 1-6, 35 mg/kg): 0.51 μg/ml and ND (Lower than the minimal detectable concentration 0.13 μg/ml) (3×) and 0.50 μg/ml and 0.56 μg/ml | Plasma rhein concentration ([6]; gavage 70 mg/kg, 1.0 h, individual rats 1-6, 70 mg/kg): 30.42 µg/mL and 40.86 µg/mL and 29.41 µg/mL and 35.89 µg/mL and 20.75 µg/mL and 58.65 µg/mL
